Experiment [1] has as its system SKOV3 cells. In words: Serum starved proliferation assay on the ovarian carcinoma SKOV3 cells (C3). The format is cell-based. The settings on record: Homo sapiens, SK-OV-3, 72 h, EGF stimulated (100 ng/ml, 72 hours, serum free) or 72 hours with compounds; MTT cell viability assay; read-out: SKOV3 cell (C3): pIC50 (converted). The essentials:
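MTT viability read-out in SKOV3 cells after a 24 h pre-incubation in 10% FCS, in one of two formats. EGF-stimulated version: serum-free compound exposure followed by 100 ng/ml EGF (final) for 72 h at 37 °C, 5% CO2. Otherwise, compound alone for 72 h.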
In general terms: Formazan colour is commonly taken as a measure of viable cells.

For experiment [2], the target named is EGFR (Homo sapiens, UniProt P00533). Description: In vitro inhibition of EGFR, Flash Plate or glass-fiber filter technology (C2). It counts as biochemical. Also noted: 0.5 μg EGFR-kinase domain/well. The conditions noted are these: EGFR-kinase domain, 5.0 μM unlabeled ATP, read-out: Kinase activity.(C2): pIC50 (converted). A digest of the protocol: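 Two radiometric formats were used, each with 5.0 μM unlabeled ATP, [33P]ATP, 0.5 μg EGFR kinase domain and compounds from 1·10^−10 to 1·10^−6 M. Glass-fiber filter: 25° C for 10 min, pH 7.5, Mn2+/Mg2+, acid-stopped, phosphorimager read. Streptavidin Flash Plate: biotinylated poly(GT), pH 8.0, 30° C for 60 min.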

SMILES strings stand for the structures.

Sequence of EGFR (P00533 712-979 limits assumed): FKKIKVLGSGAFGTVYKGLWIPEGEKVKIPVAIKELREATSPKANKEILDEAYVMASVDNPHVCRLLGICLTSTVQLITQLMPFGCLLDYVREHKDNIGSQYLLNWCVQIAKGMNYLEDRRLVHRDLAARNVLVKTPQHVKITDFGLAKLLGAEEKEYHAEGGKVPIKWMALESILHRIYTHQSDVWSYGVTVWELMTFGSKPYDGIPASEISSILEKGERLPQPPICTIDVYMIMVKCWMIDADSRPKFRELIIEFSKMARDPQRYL

With `COc1cc2ncnc3c2cc1OCC(=O)NC(CO)C(=O)NCc1ccc(Cl)cc1N3` (stereo not shown) [Compound 129, 4,6-ethanediylidenepyrimido[4,5-b][6,1,9,12]benzoxatriazacyclopentadecine-9,12(8H,13H)-dione, 17-chloro-10,11,14,19-tetrahydro-11-(hydroxymethyl)-20-methoxy-], the IC50 in experiment [1] is 3.98 µM; in experiment [2], 1.58 µM.
For `COc1cc2ncnc3c2cc1OCCCC(=O)NC(CO)C(=O)NCc1ccc(Cl)cc1N3` (stereo not shown) [Compound 130, 4,6-ethanediylidenepyrimido[4,5-b][6,1,11,14]benzoxatriazacycloheptadecine-11,14(8H,15H)-dione, 19-chloro-9,10,12,13,16,21-hexahydro-13-(hydroxymethyl)-22-methoxy-], the IC50 in experiment [1] was 0.126 µM; in experiment [2], 0.0251 µM.
For `COc1cc2ncnc3c2cc1OCCCC(=O)NC(C)C(=O)NCc1ccc(Cl)cc1N3` (stereo not shown) [Compound 131, 4,6-ethanediylidenepyrimido[4,5-b][6,1,11,14]benzoxatriazacycloheptadecine-11,14(8H,15H)-dione, 19-chloro-9,10,12,13,16,21-hexahydro-22-methoxy-13-methyl-] the same measures were 0.1 µM and 0.0251 µM.
For the compound `COc1cc2ncnc3c2cc1OCC(=O)N1CC(O)CC1C(=O)NCc1ccc(Cl)cc1N3` (stereo not shown) [Compound 133, 9,11-ethanediylidenepyrimido[4,5-b]pyrrolo[1,2-i][6,1,9,12]benzoxatriazacyclopentadecine-14,19(5H,13H)-dione, 3-chloro-16,17,18,18a,20,21-hexahydro-17-hydroxy-22-methoxy-], the IC50 in experiment [1] was 7.94 µM; in experiment [2] it was 1.58 µM.
For `COc1cc2ncnc3c2cc1OCCCCC(=O)N1CCCC1C(=O)NCc1ccc(Cl)cc1N3` (stereo not shown) [Compound 134, 4,6-ethanediylidene-8H-pyrimido[4,5-b]pyrrolo[1,2-l][6,1,12,15]benzoxatriazacyclooctadecine-12,17(18H)-dione, 22-chloro-9,10,11,14,15,16,16a,19,24-nonahydro-25-methoxy-] the same measures were 0.794 µM and 0.398 µM.
Turning to `COc1cc2ncnc3c2cc1OCC(=O)NC(C)(C)C(=O)NCCc1ccc(Cl)cc1N3` [Compound 135, 4,6-ethanediylidene-8H-pyrimido[4,5-b][6,1,9,12]benzoxatriazacyclohexadecine-9,12-dione, 18-chloro-10,11,13,14,15,20-hexahydro-21-methoxy-11,11-dimethyl-], the IC50 was 1 µM in experiment [1] and 3.98 µM in experiment [2].
For `COc1cc2ncnc3c2cc1OCCCCC(=O)NC(CC(C)C)C(=O)NCc1ccc(Cl)cc1N3` (stereo not shown) [Compound 136, 4,6-ethanediylidene-8H-pyrimido[4,5-b][6,1,12,15]benzoxatriazacyclooctadecine-12,15(16H)-dione, 20-chloro-9,10,11,13,14,17,22-heptahydro-23-methoxy-14-(2-methylpropyl)-] the same measures were 0.251 µM and 0.631 µM.
For `COc1cc2ncnc3c2cc1OCCCCC(=O)NC(C)(C)C(=O)NCc1ccc(Cl)cc1N3` [Compound 137, 4,6-ethanediylidene-8H-pyrimido[4,5-b][6,1,12,15]benzoxatriazacyclooctadecine-12,15(16H)-dione, 20-chloro-9,10,11,13,14,17,22-heptahydro-23-methoxy-14,14-dimethyl-] the same measures were 0.251 µM and 0.251 µM.
For `COc1cc2ncnc3c2cc1OCCCCC(=O)NC(Cc1ccccc1)C(=O)NCc1ccc(Cl)cc1N3` (stereo not shown) [Compound 138, 4,6-ethanediylidene-8H-pyrimido[4,5-b][6,1,12,15]benzoxatriazacyclooctadecine-12,15(16H)-dione, 20-chloro-9,10,11,13,14,17,22-heptahydro-23-methoxy-14-(phenylmethyl)-] the same measures were 0.631 µM and 2 µM.
In the case of `COc1cc2ncnc3c2cc1OCC(=O)N1CCCC1C(=O)NCCc1ccc(Cl)cc1N3` (stereo not shown) [Compound 140, 1,21-ethanediylidene-5H-pyrimido[4,5-b]pyrrolo[1,2-i][6,1,9,12]benzoxatriazacyclohexadecine-13,18(19H)-dione, 7-chloro-10,11,12,13a,14,15,16-heptahydro-23-methoxy-], the IC50 in experiment [1] and in experiment [2] was 0.2 µM throughout.
Turning to `COc1cc2ncnc3c2cc1OCC(=O)NC(CC(C)C)C(=O)NCCc1ccc(Cl)cc1N3` (stereo not shown) [Compound 141, 4,6-ethanediylidene-8H-pyrimido[4,5-b][6,1,9,12]benzoxatriazacyclohexadecine-9,12-dione, 18-chloro-10,11,13,14,15,20-hexahydro-21-methoxy-11-(2-methylpropyl)-], the IC50 was 1.58 µM in experiment [1] and 0.794 µM in experiment [2].
For `COc1cc2ncnc3c2cc1OCC(=O)NC(C(C)O)C(=O)NCCc1ccc(Cl)cc1N3` (stereo not shown) [Compound 142, 4,6-ethanediylidene-8H-pyrimido[4,5-b][6,1,9,12]benzoxatriazacyclohexadecine-9,12-dione, 18-chloro-10,11,13,14,15,20-hexahydro-11-(1-hydroxyethyl)-21-methoxy-] the same measures were 0.631 µM and 0.1 µM.
For `COc1cc2ncnc3c2cc1OCCCC(=O)NC(CC(C)C)C(=O)NCc1ccc(Cl)cc1N3` (stereo not shown) [Compound 143, 4,6-ethanediylidenepyrimido[4,5-b][6,1,11,14]benzoxatriazacycloheptadecine-11,14(8H,15H)-dione, 19-chloro-9,10,12,13,16,21-hexahydro-22-methoxy-13-(2-methylpropyl)-] the same measures were 0.2 µM and 0.501 µM.
For `COc1cc2ncnc3c2cc1OCCCC(=O)NC(C)(C)C(=O)NCc1ccc(Cl)cc1N3` [Compound 144, 4,6-ethanediylidenepyrimido[4,5-b][6,1,11,14]benzoxatriazacycloheptadecine-11,14(8H,15H)-dione, 19-chloro-9,10,12,13,16,21-hexahydro-22-methoxy-13,13-dimethyl-] the same measures were 0.126 µM and 0.158 µM.
`COc1cc2ncnc3c2cc1OCCCC(=O)NC(Cc1ccccc1)C(=O)NCc1ccc(Cl)cc1N3` (stereo not shown) [Compound 145, 4,6-ethanediylidenepyrimido[4,5-b][6,1,11,14]benzoxatriazacycloheptadecine-11,14(8H,15H)-dione, 19-chloro-9,10,12,13,16,21-hexahydro-22-methoxy-13-(phenylmethyl)-]: the IC50 in experiment [1] was 0.251 µM; in experiment [2], 0.2 µM.
For `COc1cc2ncnc3c2cc1OCCCC(=O)NC(C(C)O)C(=O)NCc1ccc(Cl)cc1N3` (stereo not shown) [Compound 146, 4,6-ethanediylidenepyrimido[4,5-b][6,1,11,14]benzoxatriazacycloheptadecine-11,14(8H,15H)-dione, 19-chloro-9,10,12,13,16,21-hexahydro-13-(1-hydroxyethyl)-22-methoxy-] the same measures were 0.631 µM and 0.2 µM.
For `COc1cc2ncnc3c2cc1OCCCCC(=O)NC(C(C)O)C(=O)NCc1ccc(Cl)cc1N3` (stereo not shown) [Compound 147, 4,6-ethanediylidene-8H-pyrimido[4,5-b][6,1,12,15]benzoxatriazacyclooctadecine-12,15(16H)-dione, 20-chloro-9,10,11,13,14,17,22-heptahydro-14-(1-hydroxyethyl)-23-methoxy-] the same measures were 0.251 µM and 0.126 µM.
